# Experimental data as given in US9078444B2, “Isothiazoline derivatives as insecticidal compounds” (Syngenta Participations AG, priority 2011, dated 2015).
# Where two headings read alike, the source gives them in different places.
# How the values were obtained:
# Assay type in all cases: in vivo
# [1] = system: Diabrotica balteata; assay: Diabrotica balteata (corn root worm) artificial diet test; settings: 120 h, 200 ppm (concentration in well 18 ppm), L2 larvae, larval mortality and growth regulation after 5 days
# Procedure: (§1) Diabrotica balteata (Corn Root Worm): A 24-well microtiter plate (MTP) with artificial diet was treated with test solutions at an application rate of 200 ppm (concentration in well 18 ppm) by pipetting. After drying, the MTPs were infested with L2 larvae (6-10 per well). After an incubation period of 5 days, samples were checked for larval mortality and growth regulation.
# [2] = system: Spodoptera littoralis; assay: Spodoptera littoralis (Egyptian cotton leafworm) cotton leaf disc test; settings: foliar, 72 h, 200 ppm sprayed on cotton leaf discs, mortality, feeding behavior, growth regulation 3 days after treatment
# Procedure: Spodoptera littoralis (Egyptian Cotton Leafworm): Cotton leaf discs were placed on agar in a 24-well microtiter plate and sprayed with test solutions at an application rate of 200 ppm. After drying, the leaf discs were infested with […]. The samples were checked for mortality, feeding behavior, and growth regulation 3 days after treatment (DAT).
# [3] = system: Tetranychus urticae; assay: Tetranychus urticae (two-spotted spider mite) bean leaf disc test; settings: foliar, 192 h, 200 ppm sprayed on bean leaf discs, mixed ages, egg, larval and adult mortality 8 days later
# Text: Tetranychus urticae (Two-Spotted Spider Mite): Bean leaf discs on agar in 24-well microtiter plates were sprayed with test solutions at an application rate of 200 ppm. After drying, the leaf discs are infested with mite populations of mixed ages. 8 days later, discs are checked for egg mortality, larval mortality, and adult mortality.
# [4] = system: Plutella xylostella; assay: Plutella xylostella (diamond back moth) artificial diet test; settings: 144 h, 200 ppm (concentration in well 18 ppm), L2 larvae, larval mortality and growth regulation after 6 days
# Procedure: as §1, with “Plutella xylostella (Diamond Back Moth):” for “Diabrotica balteata (Corn Root Worm): A”, “(7-12” for “(6-10”, “6” for “5”
# [5] = system: Heliothis virescens; assay: Heliothis virescens (tobacco budworm) egg test on artificial diet; settings: 96 h, 200 ppm (concentration in well 18 ppm), eggs on artificial diet, egg mortality, larval mortality, growth regulation after 4 days
# Procedure: Heliothis virescens (Tobacco Budworm): Eggs (0-24 h old) were placed in 24-well microtiter plate on artificial diet and treated with test solutions at an application rate of 200 ppm (concentration in well 18 ppm) by pipetting. After an incubation period of 4 days, samples were checked for egg mortality, larval mortality, and growth regulation.
# [6] = system: Thrips tabaci; assay: Thrips tabaci (onion thrips) sunflower leaf disc test; settings: foliar, 168 h, 200 ppm sprayed on sunflower leaf discs, mixed ages, mortality after 7 days
# Procedure: Thrips tabaci (Onion Thrips): Sunflower leaf discs were placed on agar in a 24-well microtiter plate and sprayed with test solutions at an application rate of 200 ppm. After drying, the leaf discs were infested with a thrips population of mixed ages. After an incubation period of 7 days, samples were checked for mortality.
# [7] = system: Spodoptera littoralis; assay: Spodoptera littoralis persistence test on sprayed cotton plants (increased safety profile / bio-degradability); settings: 12.5 ppm on cotton plants, 10 L3 larvae, mortality after 6 days incubation; for Control after 10 days/%: leaves excised 10 days after treatment; for pest or weed control at 12.5 ppm: Spodoptera littoralis
# Procedure: Biological Examples Showing Increased Safety Profile:
# Spodoptera littoralis (Egyptian Cotton Leafworm)
# Cotton plants in the 5th leaf stage (around 5 weeks old) are treated in an automated turn table spray chamber. Plants are stored in the greenhouse length during the whole test period.
# 2, 16 and optionally 10 days after treatment 4 leaves from each sample are excised, placed into 14 cm plastic petri dishes on wet filter paper. The infestation of 10 L3-Spodoptera littoralis is made immediately afterwards. After an incubation period of 6 days the samples are checked for mortality.
# In the following series of experiments the compounds of the invention are compared with the corresponding isoxazoline analogues from the prior art on Spodoptera littoralis (Egyptian cotton leafworm) performed as described in the method above.
# [8] = 48 h, leaves excised 2 days after treatment, read-out: Control after 2 days/%
# [9] = 384 h, leaves excised 16 days after treatment, read-out: Control after 16 days/%
Compound,pest or weed control at 200 ppm [1] [%],pest or weed control at 200 ppm [2] [%],pest or weed control at 200 ppm [3] [%],pest or weed control at 200 ppm [4] [%],pest or weed control at 200 ppm [5] [%],pest or weed control at 200 ppm [6] [%],Control after 10 days/% [7] [%],"pest or weed control at 12.5 ppm [7, 8] [%]","pest or weed control at 12.5 ppm [7, 9] [%]"
C#CCNC(=O)c1ccc(C2=NSC(c3cc(Cl)cc(Cl)c3)(C(F)(F)F)C2)cc1C (stereo not drawn) [Compound A35],≥ 80,≥ 80,≥ 80,≥ 80,≥ 80,≥ 80,–,–,–
"CCN1OC[C@@H](NC(=O)c2ccc(C3=NS[C@@](c4cc(Cl)cc(Cl)c4)(C(F)(F)F)C3)cc2C)C1=O [Compound A78, 4-[(5S)-5-(3,5-dichlorophenyl)-5-(trifluoromethyl)-4H-isothiazol-3-yl]-N-[(4R)-2-ethyl-3-oxo-isoxazolidin-4-yl]-2-methyl-benzamide]",≥ 80,≥ 80,≥ 80,≥ 80,≥ 80,≥ 80,–,–,–
"Cc1cc(C2=NOC(c3cc(Cl)cc(Cl)c3)(C(F)(F)F)C2)ccc1C(=O)NCc1ccccn1 (stereo not drawn) [Compound 1-061 from EP1731512, reference compound]",–,–,–,–,–,–,100,100,100
"Cc1cc(C2=NOC(c3cc(Cl)cc(Cl)c3)(C(F)(F)F)C2)ccc1C(=O)NCC(=O)NCC(F)(F)F (stereo not drawn) [Compound 3-086 from EP1731512, reference compound]",–,–,–,–,–,–,100,100,100
Cc1cc(C2=NSC(c3cc(Cl)cc(Cl)c3)(C(F)(F)F)C2)ccc1C(=O)NCCC(F)(F)F (stereo not drawn) [Compound A07],≥ 80,≥ 80,≥ 80,≥ 80,≥ 80,≥ 80,–,–,–
C=CCNC(=O)c1ccc(C2=NSC(c3cc(Cl)cc(Cl)c3)(C(F)(F)F)C2)cc1C (stereo not drawn) [Compound A63],≥ 80,≥ 80,≥ 80,≥ 80,≥ 80,≥ 80,–,–,–
Cc1cc(C2=NSC(c3cc(Cl)cc(Cl)c3)(C(F)(F)F)C2)ccc1C(=O)NC1C[S+]([O-])C1 (stereo not drawn) [Compound A21],≥ 80,≥ 80,≥ 80,≥ 80,≥ 80,≥ 80,–,–,–
Cc1cc(C2=NSC(c3cc(Cl)cc(Cl)c3)(C(F)(F)F)C2)ccc1C(=O)NCC1CCC1 (stereo not drawn) [Compound A40],≥ 80,≥ 80,≥ 80,≥ 80,≥ 80,≥ 80,–,–,–
Cc1cc(C2=NSC(c3cc(Cl)cc(Cl)c3)(C(F)(F)F)C2)ccc1C(=O)NCc1ccc(Cl)nc1 (stereo not drawn) [Compound A14],≥ 80,≥ 80,≥ 80,≥ 80,≥ 80,≥ 80,–,–,–
"Cc1cc(C2=NS[C@@](c3cc(Cl)cc(Cl)c3)(C(F)(F)F)C2)ccc1C(=O)N[C@@H]1CON(CC(F)(F)F)C1=O [Compound A79, 4-[(5S)-5-(3,5-dichlorophenyl)-5-(trifluoromethyl)-4H-isothiazol-3-yl]-2-methyl-N-[(4R)-3-oxo-2-(2,2,2-trifluoroethyl)isoxazolidin-4-yl]benzamide]",≥ 80,≥ 80,≥ 80,≥ 80,≥ 80,≥ 80,–,–,–
